{"source": "patent US20090149496A1", "about": "“INHIBITORS OF THE TASK-1 AND TASK-3 ION CHANNEL” (SANOFI-AVENTIS DEUTSCHLAND GMBH, priority 2006, published 2009)", "key": {"TASK1 (mouse)": {"target": "T1, TASK1 (mouse) (Mus musculus, UniProt O35111)", "T1 construct": "expressed in transfected cells; host or cells: Xenopus laevis oocytes injected with in vitro synthesized RNA", "T1 sequence (O35111 whole entry)": "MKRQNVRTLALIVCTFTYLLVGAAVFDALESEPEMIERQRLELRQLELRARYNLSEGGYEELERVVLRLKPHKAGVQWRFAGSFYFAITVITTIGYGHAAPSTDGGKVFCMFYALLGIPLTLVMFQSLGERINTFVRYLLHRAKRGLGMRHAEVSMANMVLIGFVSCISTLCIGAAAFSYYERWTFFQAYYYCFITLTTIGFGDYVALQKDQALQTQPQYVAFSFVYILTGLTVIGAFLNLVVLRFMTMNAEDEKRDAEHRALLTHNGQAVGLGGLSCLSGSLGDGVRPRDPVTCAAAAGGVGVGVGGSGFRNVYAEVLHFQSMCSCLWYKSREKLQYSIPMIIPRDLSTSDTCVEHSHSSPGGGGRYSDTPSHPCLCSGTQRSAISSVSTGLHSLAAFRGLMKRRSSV", "test": "Activity on the TASK-1 channel in Xenopus oocytes (two-microelectrode voltage clamp), mouse channel", "type": "cell-based", "conditions": "mouse TASK-1 expressed in Xenopus oocytes, voltage jumps to 40 mV, pH 7.4, room temperature; read-out: IC50 (μmol) TASK1 (mouse)", "protocol": "(§1) A) Determination of the Activity on the TASK-1 Channel in Xenopus Oocytes\n(§2) Mouse or human TASK-1 channels were expressed in Xenopus oocytes. For this purpose, oocytes were first isolated from Xenopus levis and defolliculated. Subsequently, TASK-1-encoding RNA synthesized in vitro was injected into these oocytes. After two days of TASK-1 protein expression, TASK-1 currents were measured on the oocytes with the two-microelectrode voltage clamp technique. In this measurement, the TASK-1 channels were generally activated with voltage jumps lasting 250 ms to 40 mV. The bath was flushed with a solution of the following composition: NaCl 96 mM, KCl 2 mM, CaCl2 1.8 mM, MgCl2 1 mM, HEPES 5 mM (titrated to pH 7.4 with NaOH). These experiments were performed at room temperature. For data acquisition and analysis, the following were used: Geneclamp amplifier (Axon Instruments, Foster City, USA) and MacLab D/A converter and software (ADinstruments, Castle Hill, Australia). The inventive substances were tested by adding them to the bath solution in different concentrations. The effects of the substances were calculated as the percentage inhibition of the TASK-1 control current which was obtained when no substance was added to the solution. The data was subsequently fitted to the Hill equation in order to determine the half-maximum inhibitory concentrations (IC50 values) for the particular substances."}, "human TASK-3 channel": {"target": "T2, human TASK-3 channel (Homo sapiens, UniProt Q9NPC2)", "T2 construct": "expressed in transfected cells; host or cells: CHO DHFR-minus cells, clone CHO-244-8-1", "T2 sequence (Q9NPC2 whole entry)": "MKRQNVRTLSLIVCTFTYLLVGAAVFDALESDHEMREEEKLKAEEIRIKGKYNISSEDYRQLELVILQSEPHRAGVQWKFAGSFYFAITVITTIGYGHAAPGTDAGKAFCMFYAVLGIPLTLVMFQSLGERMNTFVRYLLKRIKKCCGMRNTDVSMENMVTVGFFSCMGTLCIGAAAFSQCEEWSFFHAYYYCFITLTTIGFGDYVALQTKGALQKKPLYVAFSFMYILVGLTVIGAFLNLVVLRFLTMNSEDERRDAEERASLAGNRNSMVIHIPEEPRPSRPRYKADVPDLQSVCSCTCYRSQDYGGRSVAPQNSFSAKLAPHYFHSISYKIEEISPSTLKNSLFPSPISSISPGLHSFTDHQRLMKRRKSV", "test": "Activity on the TASK-3 channel by patch-clamp on CHO cells", "type": "cell-based", "conditions": "whole cell, CHO cells expressing human TASK-3, read-out: IC50 (μmol/l) TASK3 (human)", "protocol": "C) Determination of the Activity on the TASK-3 Channel by Patch-Clamp Investigations\nWith the aid of the patch-clamp technique, the inhibition of the human TASK-3 current by the example compounds was measured on CHO cells in which the human TASK-3 channel is expressed. To produce the TASK-3 cell line, the human TASK-3 cDNA (Genbank, Accession Number AF248241) was cloned into the eukaryotic expression vector p658, which bears a DHFR (dihydrofolate reductase) resistance gene [reference: Gene 1994 (149), 341-344, 1994]. CHO (Chinese hamster ovary) DHFR-minus cells were transfected with the TASK-3 expression construct using the Fugene reagent (Roche Biochemicals) according to the manufacturer's instructions. […] Resulting cell clones were analyzed for the expression of TASK-3 with the aid of a fluorescence-based activity assay in a FlexStation (Molecular Devices) and with a membrane potention-sensitive dye (Molecular Devices FMP Dye Kit). […] TASK-3-positive cell clones were subsequently analyzed for resulting potassium currents with the patch-clamp technique. […]\nTo investigate the substances, the cells were introduced into a measurement chamber which is mounted on an inverted microscope. […] The concentration of the half-maximum inhibition of the current (IC50 value) was determined by fitting the curve to the mathematical Hill equation.\nIn this analysis, the following IC50 values were determined: […]"}, "respiration in rabbits": {"tested_on": "respiration in rabbits", "test": "Action on respiration in rabbits (propofol-induced apnea)", "type": "in vivo", "conditions": "rabbit, 10 mg/kg i.v., propofol 10 mg/kg/min, n = 13", "protocol": "D) Investigation of the Action on Respiration in Rabbits\nAn apnea was induced in the rabbit by infusion of the narcotic propofol, 10 mg/kg/min. The vehicle used for the compound of example 1 (R-enantiomer) was DMSO/PEG (0.2 ml/1.8 ml). The time from the start of propofol infusion up to the apnea was recorded."}, "genioglossus muscle": {"tested_on": "genioglossus muscle", "test": "Electromyographic activity of the genioglossus muscle in narcotized rats", "type": "in vivo, rat", "protocol": "(§3) E) Investigation of the Effect on the Electromyographic Activity of the Genioglossus Muscle and the Respiratory Minute Volume in Rats\n(§4) The compound of example 1 (R-enantiomer) and of example 2 was investigated for electromyographic activity of the genioglossus muscle and for respiration-stimulating effect on male urethane-chloralose-narcotized, vagotomized rats with a weight of from 250 to 300 g. For this purpose, the genioglossus EMG activity was measured by means of EMG electrodes. The respiration-stimulating effect was investigated by measuring the respiratory minute volume by means of a tracheal cannula. For the investigations, the rats were administered intravenously successively with 1, 3 and 10 mg/kg of the compound of example 1 (R-enantiomer) and of example 2, with glycofurol (50%) as the vehicle, at 15 minute intervals. CO2 was used as the positive control for the stimulation of the genioglossus activity and of the respiratory minute volume."}, "respiration": {"tested_on": "respiration", "test": "Respiratory minute volume in narcotized rats", "type": "in vivo, rat", "protocol": "as §3, §4"}, "rats": {"tested_on": "rats", "test": "Compatibility in rats", "type": "in vivo, rat", "conditions": "oral administration of 1000 mg/kg", "source_text": "F) Investigation of Compatibility in Rats"}, "TASK1 (human) [1]": {"target": "T3, TASK1 (human) (Homo sapiens, UniProt O14649)", "T3 sequence (O14649 whole entry)": "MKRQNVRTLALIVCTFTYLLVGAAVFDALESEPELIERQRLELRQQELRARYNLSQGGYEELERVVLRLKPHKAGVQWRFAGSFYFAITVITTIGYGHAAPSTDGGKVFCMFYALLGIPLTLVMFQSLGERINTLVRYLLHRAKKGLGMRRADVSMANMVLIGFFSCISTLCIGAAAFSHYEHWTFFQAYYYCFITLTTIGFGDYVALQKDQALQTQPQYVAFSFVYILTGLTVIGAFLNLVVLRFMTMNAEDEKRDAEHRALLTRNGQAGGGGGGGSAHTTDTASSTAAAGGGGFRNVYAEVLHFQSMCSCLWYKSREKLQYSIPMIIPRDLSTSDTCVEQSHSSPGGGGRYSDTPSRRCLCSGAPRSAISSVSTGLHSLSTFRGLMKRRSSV", "test": "Activity on the TASK-1 channel with the FLIPR technique on CHO cells", "type": "cell-based", "set-up": "expressed in transfected cells; host or cells: CHO cells", "conditions": "inhibition of human TASK-1 current, 10 μmol/l", "source_text": "B) Determination of the Activity on the TASK-1 Channel with the FLIPR Technique"}, "TASK1 (human) [2]": {"target": "T3, TASK1 (human)", "test": "Activity on the TASK-1 channel in Xenopus oocytes (two-microelectrode voltage clamp), human channel", "type": "cell-based", "set-up": "expressed in transfected cells; host or cells: Xenopus laevis oocytes injected with in vitro synthesized RNA", "conditions": "human TASK-1 expressed in Xenopus oocytes, voltage jumps to 40 mV, pH 7.4, room temperature; read-out: IC50 (μmol) TASK1 (human)", "protocol": "as §1, §2"}}, "data": [{"smiles": "CCCCS(=O)(=O)Nc1ccccc1C(=O)N[C@H](CC)c1ccc(OC)nc1", "note": "[Example 1 (R-enantiomer), 2-(Butyl-1-sulfonylamino)-N-[1(R)-(6-methoxypyridin-3-yl)propyl]benzamide]", "values": [{"measurement": "IC50", "setting": "TASK1 (mouse)", "value": 150, "unit": "nM"}, {"measurement": "IC50", "setting": "human TASK-3 channel", "value": 1, "unit": "µmol/L"}, {"measurement": "Time from the start of propofol infusion up to the apnea (mean)", "setting": "respiration in rabbits", "value": 5.63, "unit": "min"}, {"measurement": "EMG activity of the genioglossus muscle (mean)", "setting": "genioglossus muscle; 1 mg/kg intravenously", "value": 4.45, "unit": "arbitrary units"}, {"measurement": "EMG activity of the genioglossus muscle (mean)", "setting": "genioglossus muscle; 3 mg/kg intravenously", "value": 5.59, "unit": "arbitrary units"}, {"measurement": "EMG activity of the genioglossus muscle (mean)", "setting": "genioglossus muscle; 10 mg/kg intravenously", "value": 7.18, "unit": "arbitrary units"}, {"measurement": "Effect on the electromyographic activity of the genioglossus muscle (in words)", "setting": "genioglossus muscle; summary of tables 2 and 4", "value": "stimulate"}, {"measurement": "Respiratory minute volume (mean)", "setting": "respiration; 1 mg/kg intravenously", "value": 246, "unit": "mL/min"}, {"measurement": "Respiratory minute volume (mean)", "setting": "respiration; 3 mg/kg intravenously", "value": 317, "unit": "mL/min"}, {"measurement": "Respiratory minute volume (mean)", "setting": "respiration; 10 mg/kg intravenously", "value": 375, "unit": "mL/min"}, {"measurement": "Effect on the respiratory minute volume (in words)", "setting": "respiration; summary of tables 3 and 5", "value": "stimulate"}, {"measurement": "Side-effects", "setting": "rats", "value": "no side-effects were observed"}, {"measurement": "melting point", "value": 97, "unit": "°C"}, {"measurement": "inhibition at 10 µM", "setting": "TASK1 (human) [1]", "value": 81, "unit": "%"}, {"measurement": "IC50", "setting": "TASK1 (human) [2]", "value": 100, "unit": "nM"}]}]}
